Experiments:
[1] = system: inflammation or neovascularization; assay: Micro- or nanoparticles injected into the suprachoroidal space (Example 13); assay type: in vivo; details: release over months to years
Procedure: Micro- or nanoparticles of Compound 1 are formed using the methods described above. The particles are injected into the suprachoroidal space of a subject with an ocular condition associated with inflammation or neovascularization or as an adjunctive therapy to reduce inflammation associated with ocular surgery.

[2] = system: endotoxin-induced inflammation in the eye; assay: Endotoxin (LPS)-induced inflammation in the eye after intravitreal implantation, OCT vitreal cell count and retinal thickness; assay type: in vivo; details: rat, intravitreal 23 G and 30 G implants; LPS 1 day (acute) or 60 days (sub-chronic) post-implantation
Procedure: The implants were loaded into 23 G and 30 G needles respectively and were sterilized by ethylene oxide (ETO) gas. An acute study evaluating only the 23 G heat molded implants was performed and a sub-chronic study evaluating both implants followed. […] Inflammation in the eye was induced using an intravitreal injection of the endotoxin lipopolysaccharide (LPS) 1-day post-implantation for the acute study and 60 days post-implantation for the sub-chronic study. […] Optical coherence tomography (OCT) was used to image the eyes (FIG. 6E) and inflammation was assessed by quantifying the number of cells in the vitreous humour and the thickness of the retinal tissue measured from the OCT images.

[3] = system: VEGF-induced retinal vascular leakage; assay: VEGF-induced retinal vascular leakage after intravitreal implantation, fundus microscopy and fluorescein angiography; assay type: in vivo; details: Dutch belted rabbits, intravitreal 27 G and 30 G cylinders; VEGF at 1 week and 10 weeks post-implantation; versus sham injection
Procedure: The cylinders were extruded with 27 G and 30 G nozzles to get diameters ˜0.2 mm and ˜0.12 mm respectively. The cylinders were cut to different lengths, ETO gas sterilized, and injected intravitreally into the eyes of Dutch belted rabbits. VEGF was injected intravitreally at 1 week and 10 weeks post-implantation to induce retinal vascular leakage. Sham injection was used as a negative control.

[4] = system: rat eyes; assay: Surface erosion of intravitreal implants in rat eyes, fundus microscopy; assay type: in vivo; details: heat-molded cylinders injected intravitreally
Procedure: The cylinders were injected intravitreally into rat eyes.

[5] = system: post-surgical inflammation in the eye; assay: Intracameral fiber mesh or cylinder after surgery (Example 12); assay type: in vivo; details: steady release over several months, e.g., three months
Source text: Fibers or cylinders are formed from Compound 1 according to the methods described above. The fibers are woven into a mesh and are placed into the eye of a subject having received surgery.

[6] = system: post-surgical inflammation and infection; assay: Intracameral implants of Compound 1 and 9 in subjects receiving ocular surgery (Example 21); assay type: in vivo; details: intracameral implants of both compounds; dexamethasone and fusidic acid release over days to weeks to a few months
Source text: Cylinders, pellets, or fibrous meshes of Compound 1 and 9 are formed using the methods described above. The implants are inserted intracamerally into subjects that are receiving an ocular surgical procedure.

[7] = 37° C.
Procedure: Heat-molded pellets from Compound 1 (˜1 mm×1 mm) were placed in 20 mL glass vials and 2 mL of release buffer (either 100% phosphate buffered saline (PBS), 1% fetal bovine serum (FBS) in PBS, or 100% FBS) was added. Samples were incubated at 37° C. on a shaker rotating at 115 rpm. After 1 day, 3 days, 7 days, and subsequently in alternating 3 and 4 day intervals (i.e., 1, 3, 7, 10, 14 days etc.), release buffer was sampled directly (PBS) or syringe filtered, proteins were precipitated with acetonitrile, and drug release products were extracted. The samples were analyzed by high performance liquid chromatography (HPLC) to quantify drug products. Cumulative drug release was calculated and plotted as a percentage of the total drug in each pellet released over time (FIG. 1E).
Drug release from the glassy state heat molded pellets was carried out in PBS and/or 100% FBS, as described in Example 1, for different time periods.
Drug release from the pellets (˜1 mm×1 mm and 1 mg of total mixture) was carried out in PBS as described in Example 1. Cumulative drug release was calculated and plotted as a percentage of the total drug released over time.

[8] = system: post-surgical inflammation in the eye; assay: Schlemm's canal fiber or tube implant after surgery (Example 11); assay type: in vivo; details: release by surface erosion over weeks to months
Source text: A fiber or tube of Compound 1 is formed using the methods described above.

[9] = Intravitreal cylinders for inflammatory or neovascularization conditions (Example 9); assay type: in vivo; details: cylinders injected into the vitreous humour
Procedure: Cylinders of Compound 1 are formed using methods described above. The cylinders are injected into the vitreous humour and release dexamethasone to the surrounding tissues including tissues in the anterior eye, the posterior eye, and surrounding tissues. […] The intravitreal implants release drug that may be used in subjects with diabetic macular edema, macular edema from retinal vein occlusion, uveitis, cystoid macular edema, post-surgical inflammation (e.g. cataract or glaucoma surgery), age-related macular degeneration, and other ocular conditions.

[10] = Dexamethasone in the vitreous humour after intravitreal injection of cylinders; assay type: in vivo; details: New Zealand white rabbits, intravitreal cylinders 30 G×1 mm, 30 G×6 mm, 23 G×6 mm
Procedure: The cylinders were injected intravitreally into New Zealand white rabbits and dexamethasone was quantified in the vitreous humour at different time points.

[11] = system: tissue response to the device; assay: Coating on a MIGS device inserted into the eye (Example 10); assay type: in vivo; details: drug released over months to years
Source text: Coating of Compound 1 is applied onto a MIGS device as described in the methods above.

[12] = system: intraocular pressure; assay: Suprachoroidal insert of Compound 1 in a subject with glaucoma (Example 14); assay type: in vivo; details: cylinder or tube as conduit from anterior chamber into suprachoroidal space; months to years
Source text: A cylinder or tube of Compound 1 is formed using the methods described above. The implant is inserted into the eye of a subject with glaucoma to create a conduit from the anterior chamber into the suprachoroidal space.

[13] = system: intraocular pressure; assay: Intracameral implants of Compound 7 in subjects with glaucoma (Example 17); assay type: in vivo; details: intracameral cylinders, pellets or fibrous meshes; anecortave release by surface erosion over months to years
Source text: Cylinders, pellets, or fibrous meshes of Compound 7 are formed using the methods described above. The implants are inserted intracamerally into subjects with glaucoma.

[14] = system: intraocular pressure; assay: Suprachoroidal insert of Compound 7 in a subject with glaucoma (Example 18); assay type: in vivo; details: cylinder or tube as conduit into suprachoroidal space, anecortave release; months to years
Source text: A cylinder or tube of Compound 7 is formed using the methods described above. The implant is inserted into the eye of a subject with glaucoma to create a conduit from the anterior chamber into the suprachoroidal space.

[15] = system: post-surgical infection in the eye; assay: Intracameral implants of Compound 9 in subjects receiving ocular surgery (Example 19); assay type: in vivo; details: fusidic acid release over days to weeks to a few months
Source text: Cylinders, pellets, or fibrous meshes of Compound 9 are formed using the methods described above. The implants are inserted intracamerally into subjects that are receiving an ocular surgical procedure.

C[C@@H]1C[C@H]2[C@@H]3CCC4=CC(=O)C=C[C@]4(C)[C@@]3(F)[C@@H](O)C[C@]2(C)[C@@]1(O)C(=O)COC(=O)OCCOCCOCCOC(=O)OCC(=O)[C@@]1(O)[C@H](C)C[C@H]2[C@@H]3CCC4=CC(=O)C=C[C@]4(C)[C@@]3(F)[C@@H](O)C[C@@]21C [Compound 1, Dexamethasone-Triethylene Glycol-Dexamethasone]
inflammation or neovascularization [1]: reduces inflammation or neovascularization
inflammation in the eye (vitreal cell count and retinal thickness by OCT) [2]: inhibit endotoxin-induced inflammation in the eye
retinal vascular leakage [3]: inhibited VEGF-induced retinal vascular leakage
erosion of the implant in the eye over time (fundus microscopy) [4]: surface erosion of the implant
inflammation in the eye [5]: Inflammation in the eye is reduced
post-surgical inflammation and infection [6]: reduce inflammation associated with the surgery and prevent infection
in vitro drug release, dose and duration ([7]; extruded cylinders 30 G×1 mm, 30 G×6 mm, 23 G×6 mm, PBS): roughly following surface erosion theory
cumulative drug release plotted over time ([7]; glassy state heat molded pellets ~1 mm×1 mm, PBS and/or 100% FBS): mostly linearly
erosion of pellets over time (representative images) ([7]; heat-molded pellets ~1 mm×1 mm, 100% FBS): surface erosion over time
post-surgical inflammation [8]: prevent or reduce inflammation associated with the surgical procedure
duration of dexamethasone release by surface erosion [9]: months to years
dexamethasone concentration in the vitreous humour over time [10]: consistent dose of dexamethasone is released
tissue response and fibrosis [11]: inhibit a tissue response to the device and reduce fibrosis
intraocular pressure [12]: reduce intraocular pressure

Anecortave-Triethylene Glycol-Anecortave [Compound 7]
intraocular pressure [13]: lower intraocular pressure in the eye
intraocular pressure [14]: reduce intraocular pressure

Fusidic Acid-Triethylene Glycol-Fusidic Acid (carbonate ester) [Compound 9]
post-surgical inflammation and infection [6]: reduce inflammation associated with the surgery and prevent infection
post-surgical infection [15]: prevent infection
